Data taken from ChEMBL document CHEMBL1201862, “PubChem BioAssay data set” (2004).
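1) Cells in 96-well plates. 2) Compound, 48 h, 5 concentrations. 3) Linear interpolation between surrounding doses. 4) Unreached endpoint = highest concentration. GI50 = concentration required for 50% inhibition of growth.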 The source made the active and inactive calls. No stated cut-off is given here; in the data, active = GI50 up to about 1.1 µM and inactive = higher.

Key:
Assay in all cases: NCI-60 cell line screen, 48 h
ACHN = tested on: ACHN
SK-MEL-28 = tested on: SK-MEL-28
SF-295 = tested on: SF-295
Malme-3M = tested on: Malme-3M
NCI-H23 = tested on: NCI-H23
OVCAR-8 = tested on: OVCAR-8
DMS-114 = tested on: DMS-114
OVCAR-5 = tested on: OVCAR-5
UACC-257 = tested on: UACC-257
HT-29 = tested on: HT-29
MOLT-4 = tested on: MOLT-4
K562 = tested on: K562
NCI-H226 = tested on: NCI-H226
SK-OV-3 = tested on: SK-OV-3
RPMI-8226 = tested on: RPMI-8226
LXFL 529 = tested on: LXFL 529
XF498 = tested on: XF498
IGROV-1 = tested on: IGROV-1
KM-20L2 = tested on: KM-20L2
HL-60 = tested on: HL-60
SN12C = tested on: SN12C
HCC 2998 = tested on: HCC 2998
KM12 = tested on: KM12
SNB-19 = tested on: SNB-19
DLD-1 = tested on: DLD-1
M14 = tested on: M14
LOX IMVI = tested on: LOX IMVI
EKVX = tested on: EKVX
SF-539 = tested on: SF-539
HOP-92 = tested on: HOP-92
SK-MEL-5 = tested on: SK-MEL-5
OVCAR-4 = tested on: OVCAR-4
HOP-62 = tested on: HOP-62
OVCAR-3 = tested on: OVCAR-3
HCT-116 = tested on: HCT-116
M19-MEL = tested on: M19-MEL
A549 = tested on: A549
SF-268 = tested on: SF-268
TK-10 = tested on: TK-10
SW-620 = tested on: SW-620
U-251 = tested on: U-251
COLO 205 = tested on: COLO 205
UACC-62 = tested on: UACC-62
A498 = tested on: A498
SNB-75 = tested on: SNB-75
UO-31 = tested on: UO-31
CAKI-1 = tested on: CAKI-1
HOP-18 = tested on: HOP-18
CCRF-CEM = tested on: CCRF-CEM
786-0 = tested on: 786-0
NCI-H522 = tested on: NCI-H522
SR = tested on: SR
HCT-15 = tested on: HCT-15
NCI-H460 = tested on: NCI-H460
SNB-78 = tested on: SNB-78
RXF 393 = tested on: RXF 393
DMS-273 = tested on: DMS-273
SK-MEL-2 = tested on: SK-MEL-2

## CCCCCCCCCCCCCC(=O)OCC1OC(=O)C(O)C1O (centres undefined)
ACHN
  GI50: > 100 µM (inactive)
SK-MEL-28
  GI50: > 100 µM (inactive)
SF-295
  GI50: 88.7 µM (inactive)
Malme-3M
  GI50: > 100 µM (inactive)
NCI-H23
  GI50: > 100 µM (inactive)
OVCAR-8
  GI50: > 100 µM (inactive)
DMS-114
  GI50: > 100 µM (inactive)
OVCAR-5
  GI50: > 100 µM (inactive)
UACC-257
  GI50: > 100 µM (inactive)
HT-29
  GI50: > 100 µM (inactive)
MOLT-4
  GI50: > 100 µM (inactive)
K562
  GI50: 73.8 µM (inactive)
NCI-H226
  GI50: > 100 µM (inactive)
SK-OV-3
  GI50: > 100 µM (inactive)
RPMI-8226
  GI50: > 100 µM (inactive)
LXFL 529
  GI50: > 100 µM (inactive)
XF498
  GI50: > 100 µM (inactive)
IGROV-1
  GI50: > 100 µM (inactive)
KM-20L2
  GI50: > 100 µM (inactive)
HL-60
  GI50: > 100 µM (inactive)
SN12C
  GI50: > 100 µM (inactive)
HCC 2998
  GI50: > 100 µM (inactive)
KM12
  GI50: > 100 µM (inactive)
SNB-19
  GI50: > 100 µM (inactive)
DLD-1
  GI50: > 100 µM (inactive)
M14
  GI50: > 100 µM (inactive)
LOX IMVI
  GI50: > 100 µM (inactive)
EKVX
  GI50: > 100 µM (inactive)
SF-539
  GI50: > 100 µM (inactive)
HOP-92
  GI50: > 100 µM (inactive)
SK-MEL-5
  GI50: > 100 µM (inactive)
OVCAR-4
  GI50: > 100 µM (inactive)
HOP-62
  GI50: > 100 µM (inactive)
OVCAR-3
  GI50: > 100 µM (inactive)
HCT-116
  GI50: > 100 µM (inactive)
M19-MEL
  GI50: > 100 µM (inactive)
A549
  GI50: > 100 µM (inactive)
SF-268
  GI50: > 100 µM (inactive)
TK-10
  GI50: > 100 µM (inactive)
SW-620
  GI50: > 100 µM (inactive)
U-251
  GI50: > 100 µM (inactive)
COLO 205
  GI50: > 100 µM (inactive)
UACC-62
  GI50: > 100 µM (inactive)
A498
  GI50: > 100 µM (inactive)
SNB-75
  GI50: > 100 µM (inactive)
UO-31
  GI50: > 100 µM (inactive)
CAKI-1
  GI50: > 100 µM (inactive)
HOP-18
  GI50: > 100 µM (inactive)
CCRF-CEM
  GI50: > 100 µM (inactive)
786-0
  GI50: > 100 µM (inactive)
NCI-H522
  GI50: > 100 µM (inactive)
SR
  GI50: > 100 µM (inactive)

## COC(=O)CC(=O)NCC1=CCC(=O)CC1
SK-MEL-28
  GI50: > 100 µM (inactive)
SF-295
  GI50: > 100 µM (inactive)
Malme-3M
  GI50: > 100 µM (inactive)
NCI-H23
  GI50: > 100 µM (inactive)
HCT-15
  GI50: > 100 µM
OVCAR-8
  GI50: > 100 µM (inactive)
DMS-114
  GI50: > 100 µM (inactive)
UACC-257
  GI50: > 100 µM (inactive)
HT-29
  GI50: > 100 µM (inactive)
MOLT-4
  GI50: > 100 µM (inactive)
K562
  GI50: > 100 µM (inactive)
SK-OV-3
  GI50: > 100 µM (inactive)
RPMI-8226
  GI50: > 100 µM (inactive)
NCI-H460
  GI50: > 100 µM (inactive)
LXFL 529
  GI50: > 100 µM (inactive)
XF498
  GI50: > 100 µM (inactive)
IGROV-1
  GI50: > 100 µM (inactive)
HL-60
  GI50: > 100 µM (inactive)
SN12C
  GI50: > 100 µM (inactive)
HCC 2998
  GI50: > 100 µM (inactive)
KM12
  GI50: > 100 µM (inactive)
SNB-19
  GI50: > 100 µM (inactive)
DLD-1
  GI50: > 100 µM (inactive)
M14
  GI50: > 100 µM (inactive)
LOX IMVI
  GI50: > 100 µM (inactive)
SNB-78
  GI50: > 100 µM (inactive)
EKVX
  GI50: > 100 µM (inactive)
SF-539
  GI50: > 100 µM (inactive)
HOP-92
  GI50: > 100 µM (inactive)
RXF 393
  GI50: > 100 µM (inactive)
SK-MEL-5
  GI50: > 100 µM (inactive)
OVCAR-4
  GI50: > 100 µM (inactive)
HOP-62
  GI50: > 100 µM (inactive)
OVCAR-3
  GI50: > 100 µM (inactive)
HCT-116
  GI50: > 100 µM (inactive)
M19-MEL
  GI50: > 100 µM (inactive)
A549
  GI50: > 100 µM (inactive)
SF-268
  GI50: > 100 µM (inactive)
TK-10
  GI50: > 100 µM (inactive)
SW-620
  GI50: > 100 µM (inactive)
U-251
  GI50: > 100 µM (inactive)
COLO 205
  GI50: > 100 µM (inactive)
UACC-62
  GI50: > 100 µM (inactive)
A498
  GI50: > 100 µM (inactive)
SNB-75
  GI50: > 100 µM (inactive)
UO-31
  GI50: > 100 µM (inactive)
CAKI-1
  GI50: > 100 µM (inactive)
CCRF-CEM
  GI50: > 100 µM (inactive)
786-0
  GI50: > 100 µM (inactive)
DMS-273
  GI50: > 100 µM (inactive)
NCI-H522
  GI50: > 100 µM (inactive)
SK-MEL-2
  GI50: > 100 µM (inactive)
